According to US20210330611A1, “THERAPY FOR NEUROLOGICAL DISEASES/DISORDERS” (priority 2020, published 2021):
Values joined by “and” are separate entries in the source; they are usually repeats but may differ in a detail not shown here. Equal entries are not always repeated. Structures can show the parent of a compound that is named as a salt. Where two headings read alike, the source gives them in different places.

Tests used:
[1] = system: LPS-induced microglia activation; experiment: Image-based assay of LPS-induced microglia activation (HTS and dose response); type: cell-based, rat
[2] = system: fibrin- and LPS-induced microglia activation; experiment: cells; type: cell-based, rat
[3] = system: primary rat microglia; settings: rat
[4] = system: fibrin-induced microglia activation; experiment: Image-based assay of fibrin-induced microglia activation (HTS and dose response); type: cell-based, rat; settings: for inhibition at 10 µM: read-out: Fibrin % inhibition
[5] = system: primary rat microglia; experiment: Cell toxicity (dead cells, size <150 μm2) in coated fibrin (cFib) assay; settings: for Fibrin % cell toxicity: primary microglia HTS;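 on Fibrin % cell toxicity: share of dead cells sized under 150 µm2 at 10 µM in fibrin-stimulated microglia HTS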
[6] = quadrant by fibrin and LPS inhibition in HTS of 1907 compounds
[7] = Rattus norvegicus, Microglia, primary microglia HTS, fibrin stimulation, increased cell size (>800 μm^2) as marker of activation
[8] = Rattus norvegicus, Microglia, read-out: LPS % inhibition
[9] = Rattus norvegicus, Microglia, primary microglia HTS, LPS stimulation, compounds at 10 μM; read-out: LPS % inhibition
[10] = classification by fibrin and LPS inhibition, HTS at 10 μM
[11] = HTS of 1907 compounds, quadrant by fibrin and LPS inhibition

C[C@@H]1C[C@@H]([C@H](O)CC2CC(=O)NC(=O)C2)C(=O)[C@@H](C)C1 [Cycloheximide] was tested, and the inhibition at 10 µM ([1]; Rattus norvegicus, Microglia, 48 h, primary microglia HTS, LPS stimulation; increased cell size (>800 μm^2) as marker of activation; read-out: LPS % inhibition) was 123%, the “Quadrant (FIG. 5b)” value [2, 6] was “Q2” and the “LPS % cell toxicity” value [3] was 45%. It also gave an inhibition at 10 µM [4, 7] of 108%.

With Clc1ccc2c(c1)CCc1cccnc1C2=C1CCNCC1 [Desloratadine] the “Quadrant (FIG. 5b)” value [2] was “Q4” and the “LPS % cell toxicity” value [3] was 0%.

CC(C)NC[C@@H](O)COc1cccc2ccccc12 [Dexpropranolol Hydrochloride] was tested, and the inhibition at 10 µM [1, 8] was 19%, the “Quadrant (FIG. 5b)” value [2] was “Q4” and the “LPS % cell toxicity” value [3] was 0%. It also gave an inhibition at 10 µM ([4]; Rattus norvegicus, Microglia) of -21%.

CN1C[C@H](C(=O)N[C@]2(C)O[C@@]3(O)[C@@H]4CCCN4C(=O)[C@H](Cc4ccccc4)N3C2=O)C[C@@H]2c3cccc4[nH]cc(c34)C[C@H]21 [Dihydroergotamine] was tested, and the inhibition at 10 µM [1, 9] was 39%, the LPS % inhibition ([1]; primary microglia HTS, LPS stimulation, compounds at 10 μM; 10 µM) was 22% and the “Quadrant (FIG. 5b)” value [2, 10] was “Q4”. The “Fibrin % cell toxicity” value ([5]; fibrin assay, dead cells (size <150 μm2), compounds at 10 μM) was 1% and 0% and the Fibrin % inhibition ([4]; primary microglia HTS, fibrin stimulation, compounds at 10 μM, 10 µM) was 7% and −3%.

In the case of Cc1c(C(N)=O)cc([N+](=O)[O-])cc1[N+](=O)[O-] [Dinitolmide], the inhibition at 10 µM [1, 8] is reported as 10%, the “Quadrant (FIG. 5b)” value [2] is reported as “Q4” and the “LPS % cell toxicity” value [3] is reported as 0%. For the same compound, the inhibition at 10 µM ([4]; Rattus norvegicus, Microglia) was -45%.

CN1CCC(OC(c2ccccc2)c2ccccc2)CC1 [Diphenylpyraline] was tested, and the inhibition at 10 µM [1, 8] was 6%, the “Quadrant (FIG. 5b)” value [2] was “Q4” and the “LPS % cell toxicity” value [3] was 0%. It also gave an inhibition at 10 µM ([4]; Rattus norvegicus, Microglia) of -69%.

For C[C@]12CC[C@@H]3c4ccc(O)cc4CC[C@H]3[C@@H]1CC[C@@H]2O [Estradiol], the “Quadrant (FIG. 5b)” value [2, 10] was “Q4” and the “LPS % cell toxicity” value [3] was 0%.

CCC(=O)c1c(O)cc(O)cc1O [Flopropione] was tested, and the inhibition at 10 µM ([1]; Rattus norvegicus, Microglia, 48 h, primary microglia HTS, LPS stimulation, activation = cell size >800 μm2; read-out: LPS % inhibition) was 10%, the “Quadrant (FIG. 5b)” value [2, 6] was “Q4” and the “Fibrin % cell toxicity” value ([5]; fibrin stimulation, toxicity = cell size <150 μm2) was 1%. It also gave an inhibition at 10 µM ([4]; Rattus norvegicus, Microglia, primary microglia HTS, fibrin stimulation, activation = cell size >800 μm2) of -35%.

In the case of COc1cc2ncnc(Nc3ccc(F)c(Cl)c3)c2cc1OCCCN1CCOCC1 [Gefitinib], the “Quadrant (FIG. 5b)” value [2] is reported as “Q4” and the “LPS % cell toxicity” value [3] is reported as 0%.

For CCN(CC)C(=O)N[C@H]1C=C2c3cccc4[nH]cc(c34)C[C@H]2N(C)C1 [Lisuride], the “Quadrant (FIG. 5b)” value [2] was “Q4” and the “LPS % cell toxicity” value [3] was 0%.

In the case of CNCCCC12CCC(c3ccccc31)c1ccccc12 [Maprotiline], the LPS % inhibition [1] is reported as 78%, the “LPS % cell toxicity” value [3] is reported as 2% and the Fibrin % inhibition [4] is reported as −4%.

In the case of CC#C[C@]1(O)CC[C@H]2[C@@H]3CCC4=CC(=O)CCC4=C3[C@@H](c3ccc(N(C)C)cc3)C[C@@]21C [Mifepristone], the “Quadrant (FIG. 5b)” value [2, 6] is reported as “Q4”, the “LPS % cell toxicity” value [3] is reported as 0% and the inhibition at 10 µM [4, 7] is reported as 12%.

O=C(O)C(O)C(O)C(=O)O.OCc1cccnc1 (stereo not shown) [Nicotinyl Alcohol Tartrate] was tested, and the “Quadrant (FIG. 5b)” value [2, 6] was “Q4” and the “LPS % cell toxicity” value [3] was 0%.

For CN1CCN(CCCN2c3ccccc3Sc3ccc(Cl)cc32)CC1 [Prochlorperazine], the inhibition at 10 µM ([1]; Rattus norvegicus, Microglia, 48 h, read-out: LPS % inhibition) was 17%, the “LPS % cell toxicity” value [3] was 1% and the inhibition at 10 µM ([4]; Rattus norvegicus, Microglia) was 6%.

With CC(N)C12CC3CC(CC(C3)C1)C2 (stereo not shown) [Rimantadine] the inhibition at 10 µM ([1]; Rattus norvegicus, Microglia, 48 h; read-out: LPS % inhibition) was 2%, the inhibition at 10 µM [1, 9] was 106% and the “Quadrant (FIG. 5b)” value ([2]; classification by fibrin and LPS inhibition in HTS) was “Q4”. For the same compound, the “Quadrant (FIG. 5b)” value ([2]; quadrant by fibrin and LPS inhibition, HTS at 10 μM) was “Q2”, the “Fibrin % cell toxicity” value ([5]; fibrin assay, dead cells (size <150 μm2)) was 93% and the “Fibrin % cell toxicity” value ([5]; fibrin stimulation, cell size <150 μm2 as marker of toxicity) was 0%. For the same compound, the inhibition at 10 µM ([4]; Rattus norvegicus, Microglia, primary microglia HTS, fibrin stimulation, cell size >800 μm2 as marker of activation) was -19% and the inhibition at 10 µM ([4]; Rattus norvegicus, Microglia, primary microglia HTS, fibrin stimulation, compounds at 10 μM) was 106%.

For Cc1nc2n(c(=O)c1CCN1CCC(c3noc4cc(F)ccc34)CC1)CCCC2 [Risperidone], the “Quadrant (FIG. 5b)” value [2] was “Q4” and the “LPS % cell toxicity” value [3] was 0%.

For Cn1nnc2c(C(N)=O)ncn2c1=O [Temozolomide], the “Quadrant (FIG. 5b)” value [2, 11] was “Q4”, the “LPS % cell toxicity” value [3] was 0% and the Fibrin % inhibition ([4]; primary microglia HTS, 10 μM, fibrin-stimulated, cell size >800 μm^2 as marker of activation) was −31% and −26%.

In the case of Cc1ncc(C[n+]2csc(CCO)c2C)c(N)n1 [Thiamine], the “Quadrant (FIG. 5b)” value [2] is reported as “Q4” and the “LPS % cell toxicity” value [3] is reported as 0%.

In the case of CN(C)CCCN1c2ccccc2Sc2ccc(C(F)(F)F)cc21 [Triflupromazine], the “LPS % cell toxicity” value [3] is reported as 1%.

In the case of CCCc1nc(C)c2c(=O)[nH]c(-c3cc(S(=O)(=O)N4CCN(CC)CC4)ccc3OCC)nn12 [Vardenafil], the inhibition at 10 µM ([1]; Rattus norvegicus, Microglia, primary microglia HTS, 10 μM, LPS-stimulated, cell size >800 μm^2 as marker of activation; read-out: LPS % inhibition) is reported as 12%, the LPS % inhibition ([1]; primary microglia HTS, 10 μM, LPS-stimulated, cell size >800 μm^2 as marker of activation) is reported as 13% and the “Quadrant (FIG. 5b)” value [2, 11] is reported as “Q4”. The “LPS % cell toxicity” value [3] was 0%.

CC(C)=CCc1c2c(c3occ(-c4ccc(O)c(O)c4)c(=O)c3c1O)C=CC(C)(C)O2 [pomiferin] gave an IC50 ([1]; Rattus norvegicus, Microglia, Table 7; read-out: LPS_IC50) of 123 nM, an IC50 ([5]; Rattus norvegicus, Microglia, read-out: dead_IC50 (uM), Table 7, fibrin or LPS assay not specified) of 3.45 µM and an IC50 ([4]; Rattus norvegicus, Microglia, Table 7, read-out: fib_IC50) of 251 nM.
